The assay concerns the target Recombinant human KIF18A (1-467 His-tagged) protein (Homo sapiens (Human), UniProt Q8NI77). Description: KIF18A Enzyme Assay: microtubule-stimulated ATPase activity (ADP-Glo). To be noted: read-out: KIF18A ATPase IC50; 30 nM KIF18A, 30 μg/mL pig microtubules, ATP at Km 75 μM, ADP-Glo luminescence. A general note: In ADP-Glo the light output rises with the ADP produced.
Chain of Recombinant human KIF18A (1-467 His-tagged) protein (Q8NI77 1-467): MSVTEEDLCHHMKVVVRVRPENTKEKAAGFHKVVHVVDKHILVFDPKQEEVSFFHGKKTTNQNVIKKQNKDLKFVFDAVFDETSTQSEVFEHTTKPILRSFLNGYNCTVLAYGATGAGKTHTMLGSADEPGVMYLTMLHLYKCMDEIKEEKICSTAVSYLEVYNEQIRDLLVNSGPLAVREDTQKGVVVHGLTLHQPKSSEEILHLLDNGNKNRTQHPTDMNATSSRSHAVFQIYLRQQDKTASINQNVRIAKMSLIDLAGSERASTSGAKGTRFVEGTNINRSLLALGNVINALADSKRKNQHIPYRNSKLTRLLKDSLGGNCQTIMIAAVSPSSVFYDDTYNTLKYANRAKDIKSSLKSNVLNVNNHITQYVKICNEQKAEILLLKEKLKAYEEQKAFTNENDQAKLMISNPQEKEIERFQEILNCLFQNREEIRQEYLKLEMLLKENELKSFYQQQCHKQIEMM
Chain of Recombinant human KIF18A (1-467 His-tagged) protein (P02550 whole entry partner): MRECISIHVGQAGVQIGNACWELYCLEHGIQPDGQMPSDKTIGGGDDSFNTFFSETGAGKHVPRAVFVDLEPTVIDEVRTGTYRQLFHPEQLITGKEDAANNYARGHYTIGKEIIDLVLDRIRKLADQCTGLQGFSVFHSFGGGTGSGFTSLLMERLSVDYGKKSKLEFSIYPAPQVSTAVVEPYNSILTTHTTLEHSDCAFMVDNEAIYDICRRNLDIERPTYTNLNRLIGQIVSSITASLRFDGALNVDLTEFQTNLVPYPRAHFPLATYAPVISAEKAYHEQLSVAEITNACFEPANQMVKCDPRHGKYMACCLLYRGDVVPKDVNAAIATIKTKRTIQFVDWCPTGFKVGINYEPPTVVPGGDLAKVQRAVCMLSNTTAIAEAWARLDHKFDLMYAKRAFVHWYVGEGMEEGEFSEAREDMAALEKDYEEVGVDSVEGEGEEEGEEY
Chain of Recombinant human KIF18A (1-467 His-tagged) protein (P02554 whole entry partner): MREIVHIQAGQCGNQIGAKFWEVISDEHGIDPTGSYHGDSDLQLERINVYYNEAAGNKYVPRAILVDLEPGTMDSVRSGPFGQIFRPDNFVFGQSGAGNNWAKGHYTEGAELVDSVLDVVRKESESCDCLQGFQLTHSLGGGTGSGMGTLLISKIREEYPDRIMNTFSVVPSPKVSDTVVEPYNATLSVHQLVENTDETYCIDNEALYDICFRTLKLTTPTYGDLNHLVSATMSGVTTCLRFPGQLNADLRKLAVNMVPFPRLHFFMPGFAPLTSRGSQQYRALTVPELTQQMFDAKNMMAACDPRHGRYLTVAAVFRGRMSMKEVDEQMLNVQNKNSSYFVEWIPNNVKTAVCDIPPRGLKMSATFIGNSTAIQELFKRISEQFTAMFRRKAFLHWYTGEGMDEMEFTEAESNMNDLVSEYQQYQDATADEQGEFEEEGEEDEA
Description: KIF18A Enzyme Assay: Microtubule-stimulated ATPase activity assay is used to measure KIF18A enzyme activity after treatment with compound. Compounds were 2-fold serially diluted in DMSO (Sigma Inc) over 22-point concentration range. […] The assay measures ADP formed from the ATPase reaction.
For the molecule `C[C@@H]1CN(c2nccc(NC(=O)c3ccc(NS(=O)(=O)C[C@@H](C)O)cc3N3CCC4(CC3)CC4)n2)CCO1` [Example 6-33-2, 4-(((R)-2-hydroxypropyl)sulfonamido)-N-(2-((R)-2-methylmorpholino)pyrimidin-4-yl)-2-(6-azaspiro[2.5]octan-6-yl)benzamide], the IC50 worked out at 86 nM.

In the case of `Cc1cc(NC(=O)c2cc(Cl)c(NS(=O)(=O)CCO)cc2N2CCC3(CC2)CC3)nc(N2CCC(F)(F)CC2)n1` [Example 6-34, 5-Chloro-N-(2-(4,4-difluoropiperidin-1-yl)-6-methylpyrimidin-4-yl)-4-((2-hydroxyethyl)sulfonamido)-2-(6-azaspiro[2.5]octan-6-yl)benzamide], the IC50 stood at 92.2 nM. As for `Cc1cc(NC(=O)c2cc(C)c(NS(=O)(=O)CCO)cc2N2CCC3(CC2)CC3)nc(N2CCC(F)(F)CC2)n1` [Example 6-35, N-(2-(4,4-Difluoropiperidin-1-yl)-6-methylpyrimdin-4-yl)-4-((2-hydroxyethyl)sulfonamido)-5-methyl-2-(6-azaspiro[2.5]octan-6-yl)benzamide], the figure is 144 nM. In the case of `COc1cc(C(=O)Nc2cc(C)nc(N3CCC(F)(F)CC3)n2)c(N2CCC3(CC2)CC3)cc1NS(=O)(=O)CCO` [Example 6-36, N-(2-(4,4-Difluoropiperidin-1-yl)-6-methylpyrimidin-4-yl)-4-((2-hydroxyethyl)sulfonamido)-5-methoxy-2-(6-azaspiro[2.5]octan-6-yl)benzamide] it was 114 nM.

On to `CC(C)(O)c1cc(NC(=O)c2ccc(NS(=O)(=O)CCO)cc2N2CCC3(CC2)CC3)nc(N2CCC(F)(F)CC2)n1` [Example 6-37, N-(2-(4,4-Difluoropiperidin-1-yl)-6-(2-hydroxypropan-2-yl)pyrimidin-4-yl)-4-((2-hydroxyethyl)sulfonamido)-2-(6-azaspiro[2.5]octan-6-yl)benzamide], for which the IC50 is 125 nM. Take `CCc1cc(NC(=O)c2ccc(NS(=O)(=O)CCO)cc2N2CCC3(CC2)CC3)nc(N2CCC(F)(F)CC2)n1` [Example 6-38, N-(2-(4,4-Difluoropiperidin-1-yl)-6-ethylpyrimidin-4-yl)-4-((2-hydroxyethyl)sulfonamido)-2-(6-azaspiro[2.5]octan-6-yl)benzamide]: the IC50 is 60 nM.

On to `O=C(Nc1cc(C2CC2)nc(N2CCC(F)(F)CC2)n1)c1ccc(NS(=O)(=O)CCO)cc1N1CCC2(CC1)CC2` [Example 6-39, N-(6-Cyclopropyl-2-(4,4-difluoropiperidin-1-yl)pyrimidin-4-yl)-4-((2-hydroxyethyl)sulfonamido)-2-(6-azaspiro[2.5]octan-6-yl)benzamide], for which the 50% inhibitory concentration (IC50) was determined as 225 nM. In the case of `C[C@@H]1CN(c2nc(NC(=O)c3ccc(NS(=O)(=O)CCO)cc3N3CCC4(CC3)CC4)cc(C(C)(C)O)n2)CCO1` [Example 6-40, (R)-4-((2-Hydroxyethyl)sulfonamido)-N-(6-(2-hydroxypropan-2-yl)-2-(2-methylmorpholino)pyrimidin-4-yl)-2-(6-azaspiro[2.5]octan-6-yl)benzamide] it was 161 nM; in that of `Cc1cc(NC(=O)c2ccc(NS(=O)(=O)CCO)cc2N2CCC3(CC2)CC3)nc(N2CC(F)(F)C2)n1` [Example 7, N-(2-(3,3-Difluoroazetidin-1-yl)-6-methylpyrimidin-4-yl)-4-((2-hydroxyethyl)sulfonamido)-2-(6-azaspiro[2.5]octan-6-yl)benzamide], 23 nM; in that of `C[C@@H]1CN(c2nccc(NC(=O)c3cc(F)c(NS(=O)(=O)CCO)cc3N3CCC4(CC3)CC4)n2)CCO1` [Example 9-1, (R)-5-Fluoro-4-((2-hydroxyethyl)sulfonamido)-N-(2-(2-methylmorpholino)pyrimidin-4-yl)-2-(6-azaspiro[2.5]octan-6-yl)benzamide], 78 nM.

Take `Cc1cc(NC(=O)c2cc(F)c(NS(=O)(=O)CCO)cc2N2CCC3(CC2)CC3)nc(N2CCO[C@H](C)C2)n1` [Example 9-2, (R)-5-Fluoro-4-((2-hydroxyethyl)sulfonamido)-N-(6-methyl-2-(2-methylmorpholino)pyrimidin-4-yl)-2-(6-azaspiro[2.5]octan-6-yl)benzamide]: the half-inhibitory concentration (IC50) is 158 nM. `C[C@H]1CN(c2nccc(NC(=O)c3ccc(NS(=O)(=O)CCO)cc3N3CCC4(CC3)CC4)n2)CCO1` [Example 11-1, (S)-4-((2-Hydroxyethyl)sulfonamido)-N-(2-(2-methylmorpholino)pyrimidin-4-yl)-2-(6-azaspiro[2.5]octan-6-yl)benzamide]: the concentration for half-maximal inhibition (IC50) was 37 nM. In the case of `Cc1cc(NC(=O)c2ccc(NS(=O)(=O)CCO)cc2N2CCC3(CC2)CC3)nc(C(C)C)n1` [Example 11-2, 4-((2-Hydroxyethyl)sulfonamido)-N-(2-isopropyl-6-methylpyrimidin-4-yl)-2-(6-azaspiro[2.5]octan-6-yl)benzamide], the IC50 is 27 nM. In the case of `Cc1cc(NC(=O)c2ccc(NS(=O)(=O)CCO)cc2N2CCC3(CC2)CC3)nc(C2CC2)n1` [Example 11-3, N-(2-Cyclopropyl-6-methylpyrimidin-4-yl)-4-((2-hydroxyethyl)sulfonamido)-2-(6-azaspiro[2.5]octan-6-yl)benzamide] it was 49 nM; in that of `Cc1cc(NC(=O)c2ccc(NS(=O)(=O)CCO)cc2N2CCC3(CC2)CC3)nc(OC2CCC2)n1` [Example 11-4, N-(2-Cyclobutoxy-6-methylpyrimidin-4-yl)-4-((2-hydroxyethyl)sulfonamido)-2-(6-azaspiro[2.5]octan-6-yl)benzamide], 18 nM. On to `Cc1cc(NC(=O)c2ccc(NS(=O)(=O)CCO)cc2N2CCC3(CC2)CC3)nc(N2CC(F)C2)n1` [Example 11-5, N-(2-(3-Fluoroazetidin-1-yl)-6-methylpyrimidin-4-yl)-4-((2-hydroxyethyl)sulfonamido)-2-(6-azaspiro[2.5]octan-6-yl)benzamide], for which the 50% inhibitory concentration (IC50) was determined as 32 nM. Take `O=C(Nc1ccnc(N2CC(F)C2)n1)c1ccc(NS(=O)(=O)CCO)cc1N1CCC2(CC1)CC2` [Example 11-6, N-(2-(3-Fluoroazetidin-1-yl)pyrimidin-4-yl)-4-((2-hydroxyethyl)sulfonamido)-2-(6-azaspiro[2.5]octan-6-yl)benzamide]: the IC50 was determined as 68 nM. As for `O=C(Nc1ccnc(N2CC(F)(F)C2)n1)c1ccc(NS(=O)(=O)CCO)cc1N1CCC2(CC1)CC2` [Example 11-7, N-(2-(3,3-Difluoroazetidin-1-yl)pyrimidin-4-yl)-4-((2-hydroxyethyl)sulfonamido)-2-(6-azaspiro[2.5]octan-6-yl)benzamide], the figure is 23 nM; as for `Cc1cc(NC(=O)c2ccc(NS(=O)(=O)CCO)cc2N2CCC3(CC2)CC3)nc(N2CC3(COC3)C2)n1` [Example 11-8, 4-((2-Hydroxyethyl)sulfonamido)-N-(6-methyl-2-(2-oxa-6-azaspiro[3.3]heptan-6-yl)pyrimidin-4-yl)-2-(6-azaspiro[2.5]octan-6-yl)benzamide], 640 nM. As for `Cc1cc(NC(=O)c2ccc(NS(=O)(=O)CCO)cc2N2CCC3(CC2)CC3)nc(N2CCC23COC3)n1` [Example 11-9, 4-((2-Hydroxyethyl)sulfonamido)-N-(6-methyl-2-(6-oxa-1-azaspiro[3.3]heptan-1-yl)pyrimidin-4-yl)-2-(6-azaspiro[2.5]octan-6-yl)benzamide], the figure is 128 nM. For the molecule `Cc1cc(NC(=O)c2ccc(NS(=O)(=O)CCO)cc2N2CCC3(CC2)CC3)nc(N2CC(OC(F)F)C2)n1` [Example 11-10, N-(2-(3-(Difluoromethoxy)azetidin-1-yl)-6-methylpyrimidin-4-yl)-4-((2-hydroxyethyl)sulfonamido)-2-(6-azaspiro[2.5]octan-6-yl)benzamide], the IC50 was 192 nM.

As to `Cc1cc(NC(=O)c2ccc(NS(=O)(=O)CCO)cc2N2CCC3(CC2)CC3)nc(N2CC(C(F)(F)F)C2)n1` [Example 11-12, 4-((2-Hydroxyethyl)sulfonamido)-N-(6-methyl-2-(3-(trifluoromethyl)azetidin-1-yl)pyrimidin-4-yl)-2-(6-azaspiro[2.5]octan-6-yl)benzamide], the IC50 amounted to 93 nM. In the case of `Cc1cc(NC(=O)c2ccc(NS(=O)(=O)CCO)cc2N2CCC3(CC2)CC3)nc(N2CC(C#N)C2)n1` [Example 11-13, N-(2-(3-Cyanoazetidin-1-yl)-6-methylpyrimidin-4-yl)-4-((2-hydroxyethyl)sulfonamido)-2-(6-azaspiro[2.5]octan-6-yl)benzamide] it was 67 nM. Turning to `Cc1cc(NC(=O)c2ccc(NS(=O)(=O)CCO)cc2N2CCC3(CC2)CC3)nc(N2CC(C(C)(C)O)C2)n1` [Example 11-14, 4-((2-Hydroxyethyl)sulfonamido)-N-(2-(3-(2-hydroxypropan-2-yl)azetidin-1-yl)-6-methylpyrimidin-4-yl)-2-(6-azaspiro[2.5]octan-6-yl)benzamide], the IC50 was found to be 172 nM.

For the molecule `Cc1cc(NC(=O)c2ccc(NS(=O)(=O)CCO)cc2N2CCC3(CC2)CC3)nc(N2CC(C)(O)C2)n1` [Example 11-15, N-(2-(3-Hydroxy-3-methylazetidin-1-yl)-6-methylpyrimidin-4-yl)-4-((2-hydroxyethyl)sulfonamido)-2-(6-azaspiro[2.5]octan-6-yl)benzamide], the IC50 came out at 935 nM. Take `Cc1cc(NC(=O)c2ccc(NS(=O)(=O)CCO)cc2N2CCC3(CC2)CC3)nc(N2CC(O)(C3CC3)C2)n1` [Example 11-16, N-(2-(3-Cyclopropyl-3-hydroxyazetidin-1-yl)-6-methylpyrimidin-4-yl)-4-((2-hydroxyethyl)sulfonamido)-2-(6-azaspiro[2.5]octan-6-yl)benzamide]: the IC50 was 1010 nM. For the molecule `Cc1cc(NC(=O)c2ccc(NS(=O)(=O)CCO)cc2N2CCC3(CC2)CC3)nc(N2CC3(CC3)C2)n1` [Example 11-17, 4-((2-Hydroxyethyl)sulfonamido)-N-(6-methyl-2-(5-azaspiro[2.3]hexan-5-yl)pyrimidin-4-yl)-2-(6-azaspiro[2.5]octan-6-yl)benzamide], the IC50 turned out to be 1090 nM.

A word on the IC50: it is the concentration that inhibits the measured activity by half.

Values taken from patent US11236069B2, “KIF18A inhibitors” (AMGEN INC., priority 2018, dated 2022).
